Measurements: patent US20150132788A1, “ESTABLISHING THE VIABILITY OF BIOLOGICAL SAMPLES” (Ovamed GmbH, priority 2012, published 2015)

Assays:
[1] = cited from earlier work
eggs of Trichuris suis = assay: Dyeing of Trichuris suis eggs (TSO) with ageladine A, fluorescence microscopy with UV excitation
Method: Embryonated eggs of Trichuris suis (TSO) according to specification of Ovamed GmbH. The nematode eggs are stored in the refrigerator at from 4 to 8° C. in a phosphate buffer at pH 5 with addition of potassium sorbate. For the tests, the TSO were washed several times in 1×DPBS (re-buffering) and adjusted to a concentration of 1000 TSO/ml.
Ageladine stock solution: 10 mM in MeOH (90%); 1 μl of ageladine was combined with 1000 μl of TSO suspension (see 2.5) in 15 ml tubes. The contents were mixed by gentle shaking and incubated for 10 minutes at ambient temperature in the dark.
The ISO were washed three times in DPBS after being dyed with Ageladine A (see 2.6.2). 10 μl of the samples were placed on object carriers with recesses and covered with glass covers. The object carriers were observed under the microscope Leica SP5 MP with and without UV excitation.

[2] = system: sensitive cells (for example, PC12); conditions: cited from earlier work
[3] = cited from earlier work; remark: listed apart in the source

Nc1nc2ccnc(-c3cc(Br)c(Br)[nH]3)c2[nH]1 [ageladine A]
pH of greatest fluorescence ([1]; fluorescence decreases as the pH value increases): ~4 pH | stability of the dyeing ([1]; intensive dyes in cells, tissues, organisms): stable over hours and days | tendency to fade ([1]; relatively long incubation times): scarcely has any tendency to fade | absorption of the dye by eggs of the whipworm (eggs of Trichuris suis; eggs normally absorb dyes very poorly): very rapid | proportion of TSO exhibiting fluorescence after incubation with ageladine A (eggs of Trichuris suis; excitation 370 nm, detection 410-480 nm, 10 minutes incubation at ambient temperature): a small percentage | correlation between eggs marked as defective by morphological criteria and fluorescing eggs (eggs of Trichuris suis; optical blind test, fourteen TSO, UV excitation): high level of correlation | fluorescence in degenerated eggs of Trichuris suis (eggs of Trichuris suis; ultraviolet excitation, multi-photon microscopy): fluoresces | toxicity ([2]; sensitive cells (for example, PC12), long incubation): not toxic | cell toxicity after a long incubation time ([2]; whipworm eggs, long incubation time): not cell-toxic | membrane permeability in the charged (protonated, acidic medium) state ([3]; charged state): membrane-impermeable | membrane permeability [3]: high level of membrane-permeability | membrane permeability in the uncharged (alkaline medium) state ([3]; uncharged state): very rapidly crosses many cell membranes
